# Experimental data: ChEMBL document CHEMBL1121976, “Structure-activity relationships for hallucinogenic N,N-dialkyltryptamines: photoelectron spectra and serotonin receptor affinities of methylthio and methylenedioxy derivatives” (J Med Chem, 1982)
# Organism: Rattus norvegicus
# Assay: The ability to inhibit the 5-HT-induced contraction of isolated rat fundus muscle was determined
# Assay type: functional
# Conditions: read-out: pA2 (converted)
row,Structure (SMILES),Kb
1,COc1ccc2c(CCN(C)C)c[nH]c2c1,1.7 µM
2,CN(C)CCc1c[nH]c2cc3c(cc12)OCO3,1.02 µM
3,COc1ccc2[nH]cc(CCN(C)C)c2c1 [MEBUFOTENIN],0.0832 µM
4,CN(C)CCc1c[nH]c2ccc3c(c12)OCO3,0.398 µM
5,CSc1ccc2[nH]cc(CCN(C)C)c2c1,0.145 µM
6,"CN(C)CCc1c[nH]c2ccccc12 [N,N-DIMETHYLTRYPTAMINE]",1 µM
7,COc1cccc2[nH]cc(CCN(C)C)c12,0.676 µM
8,CSc1cccc2[nH]cc(CCN(C)C)c12,0.617 µM
9,CSc1ccc2c(CCN(C)C)c[nH]c2c1,1.2 µM
